# Results published in ChEMBL document CHEMBL3885881, “DrugMatrix”.
# Species on record: Rattus norvegicus
# Assay: DrugMatrix - Regimen: Daily Repeat
# Type: toxicity, organism-based, Sprague-Dawley
# Design: regimen Daily Repeat, gender Male, age 6-8 weeks
# Conditions: in vivo, po, route oral GAVAGE, vehicle .5 % CMC; for BASOPHIL / EOSINOPHIL / ERYTHROCYTE COUNT / HEMATOCRIT / HEMOGLOBIN / LEUKOCYTE COUNT / LYMPHOCYTE / MEAN CORPUSCULAR HEMOGLOBIN / MEAN CORPUSCULAR HEMOGLOBIN CONCENTRATION / MEAN CORPUSCULAR VOLUME / MONOCYTE / NEUTROPHIL / PLATELET COUNT: tissue Blood; for ALANINE AMINOTRANSFERASE / ALBUMIN / ALKALINE PHOSPHATASE / ASPARTATE AMINOTRANSFERASE / BLOOD UREA NITROGEN / CARBON DIOXIDE / CHLORIDE / CHOLESTEROL / CREATINE PHOSPHOKINASE / CREATININE / GLUCOSE / LACTATE DEHYDROGENASE / LIPASE / PHOSPHORUS / POTASSIUM / SODIUM / TOTAL BILIRUBIN / TOTAL PROTEIN / URIC ACID: tissue Plasma
# [1] = 0 mg/kg, 72 h, dose level Control, time 3 day
# [2] = 0 mg/kg, 120 h, dose level Control, time 5 day
# [3] = 1200 mg/kg, 72 h, dose level High, time 3 day
# [4] = 1200 mg/kg, 120 h, dose level High, time 5 day
smiles,measurement,setting,value
CCCCC1=NC2(CCCC2)C(=O)N1Cc1ccc(-c2ccccc2-c2nnn[nH]2)cc1 [IRBESARTAN],BASOPHIL,[1],0.17%
same,EOSINOPHIL,[1],0.83%
same,ERYTHROCYTE COUNT,[1],7.2 x10E6/uL
same,HEMATOCRIT,[1],43.13%
same,HEMOGLOBIN,[1],14.63 G/DL
same,LEUKOCYTE COUNT,[1],9.05 x10E3/uL
same,LYMPHOCYTE,[1],75.17%
same,MEAN CORPUSCULAR HEMOGLOBIN,[1],20.35 pg
same,MEAN CORPUSCULAR HEMOGLOBIN CONCENTRATION,[1],33.95 G/DL
same,MEAN CORPUSCULAR VOLUME,[1],59.93 fL
same,MONOCYTE,[1],2.83%
same,NEUTROPHIL,[1],21.17%
same,PLATELET COUNT,[1],1093.17 x10E3/uL
same,ALANINE AMINOTRANSFERASE,[1],49.17 u/L
same,ALBUMIN,[1],4.33 G/DL
same,ALKALINE PHOSPHATASE,[1],366.5 u/L
same,ASPARTATE AMINOTRANSFERASE,[1],86.33 u/L
same,BLOOD UREA NITROGEN,[1],17 mg/dL
same,CARBON DIOXIDE,[1],24.17 mmol/L
same,CHLORIDE,[1],102.83 MEQ/L
same,CHOLESTEROL,[1],78.33 mg/dL
same,CREATINE PHOSPHOKINASE,[1],320.83 u/L
same,CREATININE,[1],0.3 mg/dL
same,GLUCOSE,[1],140.83 mg/dL
same,LACTATE DEHYDROGENASE,[1],210 u/L
same,LIPASE,[1],9.33 u/L
same,PHOSPHORUS,[1],9.12 mg/dL
same,POTASSIUM,[1],5.65 MEQ/L
same,SODIUM,[1],144.17 MEQ/L
same,TOTAL BILIRUBIN,[1],0.1 mg/dL
same,TOTAL PROTEIN,[1],6.3 G/DL
same,URIC ACID,[1],1.03 mg/dL
same,BASOPHIL,[2],0.17%
same,EOSINOPHIL,[2],1%
same,ERYTHROCYTE COUNT,[2],7.02 x10E6/uL
same,HEMATOCRIT,[2],43.12%
same,HEMOGLOBIN,[2],14.18 G/DL
same,LEUKOCYTE COUNT,[2],9.63 x10E3/uL
same,LYMPHOCYTE,[2],72%
same,MEAN CORPUSCULAR HEMOGLOBIN,[2],20.25 pg
same,MEAN CORPUSCULAR HEMOGLOBIN CONCENTRATION,[2],32.95 G/DL
same,MEAN CORPUSCULAR VOLUME,[2],61.43 fL
same,MONOCYTE,[2],2.67%
same,NEUTROPHIL,[2],24.5%
same,PLATELET COUNT,[2],1028.5 x10E3/uL
same,ALANINE AMINOTRANSFERASE,[2],42.5 u/L
same,ALBUMIN,[2],4.2 G/DL
same,ALKALINE PHOSPHATASE,[2],300.33 u/L
same,ASPARTATE AMINOTRANSFERASE,[2],87.67 u/L
same,BLOOD UREA NITROGEN,[2],17 mg/dL
same,CARBON DIOXIDE,[2],24.33 mmol/L
same,CHLORIDE,[2],99 MEQ/L
same,CHOLESTEROL,[2],70.67 mg/dL
same,CREATINE PHOSPHOKINASE,[2],891.33 u/L
same,CREATININE,[2],0.3 mg/dL
same,GLUCOSE,[2],139.67 mg/dL
same,LACTATE DEHYDROGENASE,[2],289.83 u/L
same,LIPASE,[2],8.83 u/L
same,PHOSPHORUS,[2],9.5 mg/dL
same,POTASSIUM,[2],5.55 MEQ/L
same,SODIUM,[2],139 MEQ/L
same,TOTAL BILIRUBIN,[2],0.0833 mg/dL
same,TOTAL PROTEIN,[2],6.1 G/DL
same,URIC ACID,[2],0.98 mg/dL
same,BASOPHIL,[3],0.33%
same,EOSINOPHIL,[3],1%
same,ERYTHROCYTE COUNT,[3],7.31 x10E6/uL
same,HEMATOCRIT,[3],43.7%
same,HEMOGLOBIN,[3],14.73 G/DL
same,LEUKOCYTE COUNT,[3],11.5 x10E3/uL
same,LYMPHOCYTE,[3],81.67%
same,MEAN CORPUSCULAR HEMOGLOBIN,[3],20.17 pg
same,MEAN CORPUSCULAR HEMOGLOBIN CONCENTRATION,[3],33.73 G/DL
same,MEAN CORPUSCULAR VOLUME,[3],59.8 fL
same,MONOCYTE,[3],2%
same,NEUTROPHIL,[3],14.67%
same,PLATELET COUNT,[3],1173.33 x10E3/uL
same,ALANINE AMINOTRANSFERASE,[3],46 u/L
same,ALBUMIN,[3],4.67 G/DL
same,ALKALINE PHOSPHATASE,[3],305.33 u/L
same,ASPARTATE AMINOTRANSFERASE,[3],75 u/L
same,BLOOD UREA NITROGEN,[3],17.67 mg/dL
same,CARBON DIOXIDE,[3],28.33 mmol/L
same,CHLORIDE,[3],103.33 MEQ/L
same,CHOLESTEROL,[3],73 mg/dL
same,CREATINE PHOSPHOKINASE,[3],219 u/L
same,CREATININE,[3],0.3 mg/dL
same,GLUCOSE,[3],133.33 mg/dL
same,LACTATE DEHYDROGENASE,[3],300.67 u/L
same,LIPASE,[3],9.33 u/L
same,PHOSPHORUS,[3],9.03 mg/dL
same,POTASSIUM,[3],5.67 MEQ/L
same,SODIUM,[3],146 MEQ/L
same,TOTAL BILIRUBIN,[3],0.1 mg/dL
same,TOTAL PROTEIN,[3],6.67 G/DL
same,URIC ACID,[3],1.23 mg/dL
same,BASOPHIL,[4],0.33%
same,EOSINOPHIL,[4],1%
same,ERYTHROCYTE COUNT,[4],7.01 x10E6/uL
same,HEMATOCRIT,[4],42.37%
same,HEMOGLOBIN,[4],14.23 G/DL
same,LEUKOCYTE COUNT,[4],11.4 x10E3/uL
same,LYMPHOCYTE,[4],79.67%
same,MEAN CORPUSCULAR HEMOGLOBIN,[4],20.33 pg
same,MEAN CORPUSCULAR HEMOGLOBIN CONCENTRATION,[4],33.57 G/DL
same,MEAN CORPUSCULAR VOLUME,[4],60.47 fL
same,MONOCYTE,[4],2%
same,NEUTROPHIL,[4],17.33%
same,PLATELET COUNT,[4],1226.33 x10E3/uL
same,ALANINE AMINOTRANSFERASE,[4],44.67 u/L
same,ALBUMIN,[4],4.23 G/DL
same,ALKALINE PHOSPHATASE,[4],299.5 u/L
same,ASPARTATE AMINOTRANSFERASE,[4],74.33 u/L
same,BLOOD UREA NITROGEN,[4],18.67 mg/dL
same,CARBON DIOXIDE,[4],20 mmol/L
same,CHLORIDE,[4],98.33 MEQ/L
same,CHOLESTEROL,[4],74 mg/dL
same,CREATINE PHOSPHOKINASE,[4],216.33 u/L
same,CREATININE,[4],0.27 mg/dL
same,GLUCOSE,[4],136 mg/dL
same,LACTATE DEHYDROGENASE,[4],197.33 u/L
same,LIPASE,[4],8.67 u/L
same,PHOSPHORUS,[4],7.83 mg/dL
same,POTASSIUM,[4],5.6 MEQ/L
same,SODIUM,[4],138 MEQ/L
same,TOTAL BILIRUBIN,[4],0.1 mg/dL
same,TOTAL PROTEIN,[4],6.17 G/DL
same,URIC ACID,[4],0.93 mg/dL
